The results in this text go back to the supplement of paper PMC10307832.

What all share (assay): relative viability (nuclei count vs DMSO), 5 days (fraction); higher = more cells survive
Compound in the test “Doramapimod + Vorinostat”: Cc1ccc(-n2nc(C(C)(C)C)cc2NC(=O)Nc2ccc(OCCN3CCOCC3)c3ccccc23)cc1 [Doramapimod] + O=C(CCCCCCC(=O)Nc1ccccc1)NO [Vorinostat] (partner 1 µM)
Summed up: (§1)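 Lung cancer cell lines, seeded in 1536-well plates, were treated the following day by pin tool with a single drug or with five library-drug doses (not always all listed) in √10 steps on top of a fixed anchor-drug dose. Cells were fixed and nuclei stained in one step after 5 days, and nuclei were counted. Relative viability is the nuclei count for treated wells divided by that for vehicle wells, reported as medians of duplicate plates.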

Compound in the test “Doramapimod + Tozasertib”: Cc1ccc(-n2nc(C(C)(C)C)cc2NC(=O)Nc2ccc(OCCN3CCOCC3)c3ccccc23)cc1 [Doramapimod] + Cc1cc(Nc2cc(N3CCN(C)CC3)nc(Sc3ccc(NC(=O)C4CC4)cc3)n2)n[nH]1 [Tozasertib] (partner 0.1 µM)
Put shortly: as §1

Compound in the test “IPA-3 + Dasatinib”: C1=CC=C2C(=C1)C=CC(=C2SSC3=C(C=CC4=CC=CC=C43)O)O [IPA-3] + Cc1nc(Nc2ncc(C(=O)Nc3c(C)cccc3Cl)s2)cc(N2CCN(CCO)CC2)n1 [Dasatinib] (partner 0.075 µM)
Summed up: as §1

Compound in the test “Doramapimod + Olaparib”: Cc1ccc(-n2nc(C(C)(C)C)cc2NC(=O)Nc2ccc(OCCN3CCOCC3)c3ccccc23)cc1 [Doramapimod] + O=C(c1cc(Cc2n[nH]c(=O)c3ccccc23)ccc1F)N1CCN(C(=O)C2CC2)CC1 [Olaparib] (partner 8 µM)
Summed up:
as §1

On to UMC-11, for which the relative viability with Doramapimod + Vorinostat (first compound 0.02 µM) amounted to 0.371; with Doramapimod + Vorinostat (first compound 0.06325 µM) it was 0.33; with Doramapimod + Vorinostat (first compound 0.2 µM) it was 0.423; in the test with Doramapimod + Vorinostat (first compound 0.6325 µM), 0.316; with Doramapimod + Vorinostat (first compound 2 µM) it was 0.379; with Doramapimod + Tozasertib (first compound 0.02 µM), 0.2. The relative viability came to 0.174 in the test with Doramapimod + Tozasertib (first compound 0.06325 µM); 0.199 with Doramapimod + Tozasertib (first compound 0.2 µM); 0.195 with Doramapimod + Tozasertib (first compound 0.6325 µM); 0.205 in the test with Doramapimod + Tozasertib (first compound 2 µM); 0.605 in the test with IPA-3 + Dasatinib (first compound 0.2 µM); 0.421 with IPA-3 + Dasatinib (first compound 0.6325 µM). The relative viability with IPA-3 + Dasatinib (first compound 2 µM) worked out at 0.483; with IPA-3 + Dasatinib (first compound 6.325 µM), 0.446; with IPA-3 + Dasatinib (first compound 20 µM), 0.489; in the test with Doramapimod + Olaparib (first compound 0.02 µM), 0.353; with Doramapimod + Olaparib (first compound 0.06325 µM), 0.348; with Doramapimod + Olaparib (first compound 0.2 µM), 0.274. For the same cell line, the relative viability is 0.963 in the test with Doramapimod + Olaparib (first compound 0.6325 µM) and 0.365 with Doramapimod + Olaparib (first compound 2 µM).
